For data set [1], the system named is T. brucei brucei GUTat 3.1. The experiment in a line: In vitro anti-trypanosomal activity (Alamar Blue). The class given is cell-based, Trypanosoma brucei brucei. Conditions: for Selectivity Index (SI): (IC50 for MRC-5)/(IC50 for T. brucei brucei); for IC50: Trypanosoma brucei, read-out: IC50 anti-trypanosomal activity; for IC50 / IC50 anti-trypanosomal activity: 72 h. How it is done: With collections of the natural-product-inspired molecules in hand, in vitro anti-trypanosomal activities were evaluated by employing a GUTat 3.1 strain of T. brucei brucei (Table 1) according to the previously reported protocols (Supporting Information File 1). […] Thus, this preliminary assessment supports the idea that the collections of natural-product-inspired scaffolds could have high hit rates against biological screenings, even without having structural information about the biological targets and small-molecule modulators related to the targeted cellular functions. Further screening investigations of the synthetic collections prepared in the four-step process are currently underway in our laboratories.
Assay for in vitro anti-trypanosomal activity against T. brucei species According to a procedure previously used in [Toriizuka et al. Bioorg. Med. Chem. 2008, 16, 10182–10189.], Trypanosoma brucei brucei strain GUTat 3.1 (Glasgow University, Trypanozoon antigenic type 3.1) was generously donated from Dr. Y. Yabu (Nagoya City University). T. brucei brucei GUTat 3.1 strain was cultured in IMDM with 3.024 g/L NaHCO3, 100 μM hypoxanthine, 30 μM thymidine, 40 μM adenosine, 1.0 mM sodium pyruvate, 50 μM L-glutamine, 100 μM 2-mercaptoethanol, 50 U/mL of penicillin, and 50 μg/mL of streptomycin containing 10% heat-inactivated FBS at 37 °C, under 5.0% CO2–95% air, according to the protocol of [Yabu et al.
Southeast Asian J. Trop. Med. Public Health 1998, 29, 591]. In vitro antitrypanosomal activity of the test compounds was evaluated from a dose–response curve utilizing the fluorescent dye, Alamar Blue, according to the method of [Räz et al. Acta Trop. 1997, 68, 139 and Tasdemir et al.
Antimicrob. Agents Chemother. 2006, 50, 1352] with some modifications. Ninety-five microliters of trypanosome suspension ([…] trypanosomes/mL for GUTat 3.1 strain) of bloodstream forms was seeded into a 96-well microplate and 5.0 μL of test compound solution (dissolved in 5.0% dimethylsulfoxide: DMSO) was added. After incubating for 72 h at 37 °C under 5.0% CO2–95% air, 10 μL of Alamar Blue was added to each well. After further incubation for 3–6 h at 37 °C under 5.0% CO2–95% air, the microplate was measured at 528/20 nm excitation wavelength and 590/35 nm emission wavelength with an FLx800 fluorescent plate reader (Bio-Tek Instrument, Inc.Vermont, USA). Data were transferred into a graphic program (Excel) and the 50% inhibitory concentration (IC50) values were determined with fluorescent plate reader software (KC-4, […]
(§1) Cytotoxicity tests on MRC-5 cells
(§2) The human diploid embryonic cell line, MRC-5, was a generous gift from Dr. L. Maes (Tibotec NV, Mechelen, Belgium). Cytotoxicity of the test compound was measured by the colorimetric MTT assay [Mossman, T. J. Immunol. Methods 1983, 65, 55 and Otoguro, K. et al. ATLA:Alternatives to Laboratory Animals 1991, 19, 352] in 96-well microplates. In brief, 100 μL of MRC-5 cell suspension was added to 96-well microplates at 1 × 10^3 cells/well and the cells were cultured for 24 h. Then, 90 μL of standard culture medium (MEM + 10% FCS) with or without 10 μL of test compound solution that was dissolved in 25% ethanol or 5% DMSO was added to each well.
(§3) Further incubation was conducted at 37 °C under 5% CO2–95% air for 7 days and then 20 μL of MTT–PBS solution (5 mg/mL) was added to each well. The microplate was incubated at 37 °C for 4 h under 5% CO2–95% air. Then, the incubation medium was aspirated and 100 μL of DMSO was added to solubilize the MTT formazan product. After mixing, absorbance at 540 nm was measured with iEMS microplate reader MF. The IC50 value was estimated from the dose–response curve.
A general note: Resazurin is reduced to fluorescent resorufin, in cell work by metabolically active cells.

Data set [2] in a line: Cytotoxicity on MRC-5 cells (MTT assay). The class given is cell-based. The note with it: human, MRC-5 cells (human diploid embryonic cell line). How it is done: as §1, §2, §3
In general terms: Tetrazolium dyes change colour on reduction, which living cells bring about.

The mark [3] stands for this setting: T. brucei brucei GUTat 3.1 strain, 2.0–2.5 × 10^4 trypanosomes/mL.
[4] abbreviates: T. brucei brucei GUTat 3.1 strain.

Values after ≈ are worked out from the molar mass of the structure shown. Like-named read-outs stand apart in the source and are kept apart here. Some results are limits rather than exact numbers.

The values that follow come from publication PMC3388883, “Parallel and four-step synthesis of natural-product-inspired scaffolds through modular assembly and divergent cyclization” (Beilstein Journal of Organic Chemistry, 2012).

As a reminder, the IC50 is the point on the concentration scale where inhibition reaches its midpoint. Take `N=C(N)c1ccc(OCCCCCOc2ccc(C(=N)N)cc2)cc1` [pentamidine, reference compound]: the “Selectivity Index (SI)” value in data set [1] was found to be 3600. For the same compound, in data set [1] (setting [3]), the IC50 is 0.00158 µg/mL (≈ 0.00464 µM). The same compound yielded an IC50 at 7 days in data set [2] of 5.71 µg/mL (≈ 16.8 µM).
Turning to `CC(=O)C12CC3CN(C(C(=O)NC(C)(C)C)c4cn(S(=O)(=O)c5ccccc5[N+](=O)[O-])c5ccccc45)C(=O)C4(C)CCCN(C1=O)C34O2` (stereo not shown) [39a], the “antitrypanosomal activity (in words)” value in data set [1] (setting [4]) is recorded as “negligible activities”. Moreover, the IC50 anti-trypanosomal activity in data set [1] (setting [3]) is more than 12.5 µg/mL.
Consider `CC(=O)C12CC3CN(C(C(=O)NC(C)(C)C)c4cn(S(=O)(=O)c5ccccc5[N+](=O)[O-])c5ccccc45)C(=O)C4(C)CCCN(C1=O)C34O2` (stereo not shown) [39b], for which the “Selectivity Index (SI)” value in data set [1] is 8.7. This compound yielded an IC50 anti-trypanosomal activity in data set [1] (setting [3]) of 0.46 µg/mL (≈ 0.665 µM). Moreover, the IC50 at 7 days in data set [2] was determined as 4.02 µg/mL (≈ 5.81 µM).
`CC(=O)C12OC34N(CCCC3(C)N(C(CC(C)C)C(=O)NC(C)(C)C)C(=O)C43c4ccccc4N(S(=O)(=O)c4ccccc4[N+](=O)[O-])C13)C2=O` (stereo not shown) [63b]: in data set [1] (setting [4]), the “antitrypanosomal activity (in words)” value is listed as “insignificant activities”.
For the compound `CC(=O)[C@@]12O[C@@]34N(CCC[C@]3(C)C(=O)N([C@H](C(=O)NC(C)(C)C)c3cn(S(=O)(=O)c5ccccc5[N+](=O)[O-])c5ccccc35)C[C@]43c4ccccc4N(S(=O)(=O)c4ccccc4[N+](=O)[O-])[C@H]13)C2=O` [30b], in data set [1] (setting [4]), the “antitrypanosomal activity (in words)” value is “negligible”. For the same compound, the IC50 in data set [1] was more than 12.5 µg/mL.
For `COc1ccc(CN2C(=O)[C@@]3(C)CCCN4C(=O)[C@]5(C(C)=O)O[C@@]43[C@@]3(c4ccccc4N(S(=O)(=O)c4ccccc4[N+](=O)[O-])[C@H]53)[C@@H]2C(=O)NC(C)(C)C)cc1` (racemic) [25a], the “Selectivity Index (SI)” value in data set [1] is given as 4.1. Besides, in data set [1] (setting [3]), the IC50 was 5.9 µg/mL (≈ 7.64 µM). The same compound displayed an IC50 at 7 days in data set [2] of 24.5 µg/mL (≈ 31.7 µM).
`CC(=O)[C@@]12O[C@@]34N(CCC[C@]3(C)N([C@@H](CC(C)C)C(=O)NC(C)(C)C)C(=O)[C@]43c4ccccc4N(S(=O)(=O)c4ccccc4[N+](=O)[O-])[C@H]13)C2=O` [63a]: the “antitrypanosomal activity (in words)” value in data set [1] (setting [4]) was “insignificant activities”.
For `CC(=O)[C@]12O[C@]34[C@@H](CN([C@H](C(=O)NC(C)(C)C)c5cn(S(=O)(=O)c6ccccc6[N+](=O)[O-])c6ccccc56)C(=O)[C@@]3(C)CCCN4C1=O)C2(C)C` [41b], the “Selectivity Index (SI)” value in data set [1] is 5.9. Also, the IC50 in data set [1] (setting [3]) worked out at 5.89 µg/mL (≈ 8.18 µM). This compound showed an IC50 at 7 days in data set [2] of 34.6 µg/mL (≈ 48.1 µM).
For `NCCCC(N)(C(=O)O)C(F)F` (stereo not shown) [eflornithine, reference compound] the same measures were more than 44, 2.27 µg/mL (≈ 12.5 µM) and more than 100 µg/mL.
Regarding `CC(=O)[C@@]12C[C@@H]3CN([C@H](C(=O)NC(C)(C)C)c4c[nH]c5ccccc45)C(=O)[C@@]4(C)CCCN(C1=O)[C@@]34O2` [39c], the “antitrypanosomal activity (in words)” value in data set [1] (setting [4]) is listed as “substantial loss of the activities”. In addition, the IC50 in data set [1] (setting [3]) is more than 12.5 µg/mL.
Take `COc1ccc(CN2C(=O)[C@@]3(C)CCCN4C(=O)[C@]5(C(C)=O)O[C@@]43[C@@]3(c4ccccc4N(S(=O)(=O)c4ccccc4[N+](=O)[O-])[C@H]53)[C@H]2C(=O)NC(C)(C)C)cc1` (racemic) [25b]: in data set [1] (setting [4]), the “antitrypanosomal activity (in words)” value is reported as “negligible”. Moreover, the IC50 in data set [1] (setting [3]) was more than 12.5 µg/mL.
For `Cc1ccc(C(=O)Nc2ccc(S(=O)(=O)O)c3cc(S(=O)(=O)O)cc(S(=O)(=O)O)c23)cc1NC(=O)c1cccc(NC(=O)Nc2cccc(C(=O)Nc3cc(C(=O)Nc4ccc(S(=O)(=O)O)c5cc(S(=O)(=O)O)cc(S(=O)(=O)O)c45)ccc3C)c2)c1` [suramin, reference compound], in data set [1], the “Selectivity Index (SI)” value is more than 63 and the IC50 came to 1.58 µg/mL (≈ 1.22 µM). Also, the IC50 at 7 days in data set [2] is more than 100 µg/mL.
